In one assay the target is T1, Isocitrate lyase (Mycobacterium tuberculosis, UniProt P9WKK7).
T1 sequence (P9WKK7 whole entry): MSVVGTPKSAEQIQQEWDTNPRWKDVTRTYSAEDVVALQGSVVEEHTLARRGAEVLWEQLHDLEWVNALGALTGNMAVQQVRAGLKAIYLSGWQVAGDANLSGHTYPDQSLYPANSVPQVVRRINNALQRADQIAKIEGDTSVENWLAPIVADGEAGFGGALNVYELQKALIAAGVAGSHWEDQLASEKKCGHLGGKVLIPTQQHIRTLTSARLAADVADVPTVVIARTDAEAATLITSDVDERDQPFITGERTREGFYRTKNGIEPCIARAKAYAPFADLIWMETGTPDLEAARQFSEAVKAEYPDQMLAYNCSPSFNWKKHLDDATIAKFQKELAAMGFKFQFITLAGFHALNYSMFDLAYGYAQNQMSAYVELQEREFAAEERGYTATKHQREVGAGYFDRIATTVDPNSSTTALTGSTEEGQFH
Nature of the assay: Inhibition of Mycobacterium tuberculosis recombinant isocitrate lyase expressed in Escherichia coli BL21 (DE3) using isocitrate as substrate after 10 mins by spectrometric analysis.

For assay [1], the target named is T2, Isocitrate lyase (Mycobacterium tuberculosis) (UniProt P9WKK7).
T2 sequence (whole entry): T1 sequence (P9WKK7 whole entry)
Nature of the assay: Inhibition of Mycobacterium tuberculosis recombinant isocitrate lyase expressed in Escherichia coli BL21 (DE3) using isocitrate as substrate at 1 mg/mL by spectrometric analysis relative to control.

Consider `O=C(O)CC[N+](=O)[O-]`, for which, at Isocitrate lyase, the IC50 (usually the concentration needed to halve the response being measured) was found to be 50.7 µM.

H-HISHLML-OH: in assay [1], the inhibition (as a rule, the percentage by which the read-out fell short of the control) stood at 51%. The IC50 on Isocitrate lyase came out at 192 µM.

With H-HYSSHMR-OH [listing 1 of 2 here], the IC50 at Isocitrate lyase was found to be 126 µM.

For H-HYSSHMR-OH [listing 2 of 2 here], in assay [1], the inhibition is 72%.

On to H-LTLGPLL-OH, for which the inhibition in assay [1] is 55%. For the same compound, the IC50 at Isocitrate lyase turned out to be 208 µM.

Take H-LTQHLTA-OH: the inhibition in assay [1] is 56%. For the same compound, the IC50 at Isocitrate lyase came out at 214 µM.

As for H-LYALATM-OH, the inhibition in assay [1] is 52%. Further, the IC50 on Isocitrate lyase amounted to 204 µM.

On to H-NPPERSP-OH, for which the inhibition in assay [1] came to 73%. For the same compound, the IC50 at Isocitrate lyase came out at 142 µM.

As to H-NSSSLAQ-OH, the inhibition in assay [1] was 62%. Further, the IC50 on Isocitrate lyase was found to be 190 µM.

In the case of H-QKASPGA-OH, in assay [1], the inhibition amounted to 73%. For the same compound, on Isocitrate lyase, the IC50 was 172 µM.

With H-SARVTSR-OH [listing 1 of 2 here], the IC50 at Isocitrate lyase amounted to 166 µM.

As for H-SARVTSR-OH [listing 2 of 2 here], the inhibition in assay [1] amounted to 65%.

In the case of H-TELSLPS-OH, in assay [1], the inhibition was determined as 61%. For the same compound, the IC50 on Isocitrate lyase was determined as 182 µM.

As for H-TMHLSPY-OH, the inhibition in assay [1] was found to be 63%. In addition, the IC50 on Isocitrate lyase worked out at 156 µM.

Take H-VTSLKAT-OH: in assay [1], the inhibition came to 51%. Besides, the IC50 at Isocitrate lyase amounted to 228 µM.
